# Read-outs that look alike come from different tables or passages of the source.
# Tests used:
# Type in all cases: biochemical
# [1] = biological target: T1, recombinant human FAPα (rhFAPα) (Homo sapiens, UniProt Q12884); experiment: FAPα enzymatic exopeptidase (dipeptidase) activity assay, Z-Gly-Pro-AMC; settings: for inhibition at 1 µM: exopeptidase inhibition at 1 μM test compound
# T1 construct: purchased R&S system (so in the source)
# T1 sequence (Q12884 1-760): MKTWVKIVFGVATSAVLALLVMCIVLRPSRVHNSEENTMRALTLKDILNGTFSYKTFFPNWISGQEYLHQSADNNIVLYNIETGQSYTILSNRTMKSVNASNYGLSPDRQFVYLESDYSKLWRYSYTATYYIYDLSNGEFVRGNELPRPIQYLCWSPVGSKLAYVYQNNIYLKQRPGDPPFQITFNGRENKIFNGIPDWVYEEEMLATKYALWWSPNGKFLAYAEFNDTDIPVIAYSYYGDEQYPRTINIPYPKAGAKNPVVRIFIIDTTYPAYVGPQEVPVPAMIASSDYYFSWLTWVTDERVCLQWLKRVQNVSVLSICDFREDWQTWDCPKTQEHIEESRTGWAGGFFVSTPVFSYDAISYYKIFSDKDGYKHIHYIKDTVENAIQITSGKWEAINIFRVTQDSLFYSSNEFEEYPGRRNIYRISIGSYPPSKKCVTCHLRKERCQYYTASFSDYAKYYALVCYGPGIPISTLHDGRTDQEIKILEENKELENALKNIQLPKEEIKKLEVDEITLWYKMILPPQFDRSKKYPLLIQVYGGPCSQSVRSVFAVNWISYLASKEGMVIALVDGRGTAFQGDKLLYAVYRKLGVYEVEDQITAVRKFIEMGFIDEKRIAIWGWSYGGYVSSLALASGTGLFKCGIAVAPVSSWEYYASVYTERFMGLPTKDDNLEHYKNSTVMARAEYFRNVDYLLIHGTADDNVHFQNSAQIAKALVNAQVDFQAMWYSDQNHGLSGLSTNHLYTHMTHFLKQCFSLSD
# [2] = biological target: T2, recombinant human DPPIV (rhDPPIV) (Homo sapiens, UniProt P27487); experiment: DPPIV enzymatic activity assay, H-Gly-Pro-pNA
# T2 construct: purchased R&S system (so in the source)
# T2 sequence (P27487 whole entry): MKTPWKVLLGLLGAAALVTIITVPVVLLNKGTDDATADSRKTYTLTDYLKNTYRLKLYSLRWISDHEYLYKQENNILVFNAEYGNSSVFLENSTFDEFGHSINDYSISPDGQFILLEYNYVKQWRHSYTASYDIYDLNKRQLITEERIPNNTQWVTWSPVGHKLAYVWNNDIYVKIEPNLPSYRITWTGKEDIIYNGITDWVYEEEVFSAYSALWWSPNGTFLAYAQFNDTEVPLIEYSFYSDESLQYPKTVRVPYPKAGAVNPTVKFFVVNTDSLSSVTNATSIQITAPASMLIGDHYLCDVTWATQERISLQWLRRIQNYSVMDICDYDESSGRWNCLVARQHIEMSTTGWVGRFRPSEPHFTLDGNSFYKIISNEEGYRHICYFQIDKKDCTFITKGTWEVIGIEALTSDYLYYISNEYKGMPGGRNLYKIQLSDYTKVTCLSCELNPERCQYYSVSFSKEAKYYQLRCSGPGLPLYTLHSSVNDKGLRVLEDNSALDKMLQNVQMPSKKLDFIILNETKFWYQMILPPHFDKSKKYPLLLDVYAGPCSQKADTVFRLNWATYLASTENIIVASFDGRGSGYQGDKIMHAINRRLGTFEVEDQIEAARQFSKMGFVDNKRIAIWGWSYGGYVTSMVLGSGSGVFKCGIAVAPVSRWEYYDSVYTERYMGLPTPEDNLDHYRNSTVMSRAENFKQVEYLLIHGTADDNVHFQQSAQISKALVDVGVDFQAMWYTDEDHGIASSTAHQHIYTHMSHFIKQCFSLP
# [3] = biological target: T3, recombinant human PREP (rhPREP) (Homo sapiens, UniProt P48147); experiment: PREP enzymatic activity assay, Z-Gly-Pro-AMC
# T3 sequence (P48147 1-710): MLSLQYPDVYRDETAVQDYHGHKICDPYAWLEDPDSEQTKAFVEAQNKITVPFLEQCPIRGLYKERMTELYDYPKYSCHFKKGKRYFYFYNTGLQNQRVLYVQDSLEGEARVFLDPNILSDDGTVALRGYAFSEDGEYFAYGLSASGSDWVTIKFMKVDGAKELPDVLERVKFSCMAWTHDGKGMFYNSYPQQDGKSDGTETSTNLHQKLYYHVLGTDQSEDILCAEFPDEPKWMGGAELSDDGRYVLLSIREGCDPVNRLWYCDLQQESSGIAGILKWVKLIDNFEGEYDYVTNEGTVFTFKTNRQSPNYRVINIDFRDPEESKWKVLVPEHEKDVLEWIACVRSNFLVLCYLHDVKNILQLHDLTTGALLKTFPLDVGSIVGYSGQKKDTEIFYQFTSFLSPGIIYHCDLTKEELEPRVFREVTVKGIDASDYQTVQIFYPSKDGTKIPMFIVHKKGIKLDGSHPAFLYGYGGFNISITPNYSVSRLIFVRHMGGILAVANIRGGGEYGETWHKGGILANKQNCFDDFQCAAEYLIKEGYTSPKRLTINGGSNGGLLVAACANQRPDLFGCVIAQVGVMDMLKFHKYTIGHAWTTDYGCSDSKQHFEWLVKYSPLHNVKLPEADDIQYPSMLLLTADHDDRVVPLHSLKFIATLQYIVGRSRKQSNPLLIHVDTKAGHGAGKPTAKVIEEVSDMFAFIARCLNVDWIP
# [4] = biological target: T4, recombinant human DPP9 (rhDPP9) (Homo sapiens, UniProt Q86TI2); experiment: DPP9 enzymatic activity assay, 40 ng rhDPP9, HEPES buffer; settings: Table 3A
# T4 construct: purchased R&S system / R&D systems (both sic) 5419-SE
# T4 sequence (Q86TI2 whole entry): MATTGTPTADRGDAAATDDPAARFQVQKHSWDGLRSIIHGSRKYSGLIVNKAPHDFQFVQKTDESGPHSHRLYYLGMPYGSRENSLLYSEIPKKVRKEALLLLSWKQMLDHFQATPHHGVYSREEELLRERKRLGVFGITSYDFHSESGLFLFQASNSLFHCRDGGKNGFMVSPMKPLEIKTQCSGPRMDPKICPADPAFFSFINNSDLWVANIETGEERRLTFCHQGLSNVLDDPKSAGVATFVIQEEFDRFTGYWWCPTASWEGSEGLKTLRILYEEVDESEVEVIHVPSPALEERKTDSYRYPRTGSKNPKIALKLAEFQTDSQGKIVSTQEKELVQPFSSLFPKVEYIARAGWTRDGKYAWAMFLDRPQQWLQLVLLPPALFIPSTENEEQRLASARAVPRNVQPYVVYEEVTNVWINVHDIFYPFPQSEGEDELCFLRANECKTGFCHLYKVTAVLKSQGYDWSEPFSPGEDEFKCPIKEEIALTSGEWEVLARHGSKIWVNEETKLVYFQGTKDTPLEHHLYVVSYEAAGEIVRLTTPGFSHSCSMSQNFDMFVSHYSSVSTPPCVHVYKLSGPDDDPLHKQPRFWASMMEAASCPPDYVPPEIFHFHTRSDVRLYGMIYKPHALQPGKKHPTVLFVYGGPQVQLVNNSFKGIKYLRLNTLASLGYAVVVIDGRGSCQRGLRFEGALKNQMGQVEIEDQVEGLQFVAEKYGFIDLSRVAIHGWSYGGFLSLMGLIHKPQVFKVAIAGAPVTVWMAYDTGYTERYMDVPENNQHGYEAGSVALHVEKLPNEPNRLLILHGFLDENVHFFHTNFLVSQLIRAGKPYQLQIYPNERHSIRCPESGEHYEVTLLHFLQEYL
# [5] = biological target: T4, recombinant human DPP9 (rhDPP9); experiment: DPP9 inhibition assay, 10 ng rhDPP9, Tris-HCl/BSA buffer; settings: Table 3B
# [6] = Table 2, read-out: rhFAPα (% exo inh @ 1 μM)
# [7] = Table 3B, read-out: rhFAPα % exo inh @ 1 μM
# [8] = exopeptidase, Table 2, read-out: rhFAPα (exo IC50)
# [9] = exopeptidase, Table 3A, read-out: rhFAPα (exo IC50)
SMILES,"IC50 ([1]; Table 3B, read-out: rhFAP IC50)","inhibition at 1 µM [1, 6]","inhibition at 1 µM [1, 7]","IC50 [1, 8]","IC50 [1, 9]",IC50 ([2]; Table 3A),IC50 ([2]; Table 3B),IC50 ([3]; Table 3A),IC50 ([3]; Table 3B),IC50 [4],IC50 [5]
"N#C[C@@H]1CC(F)(F)CN1C(=O)CNC(=O)c1ccncc1NC(=O)Cc1ccccc1 [Compound 1, (S)—N-(2-(2-cyano-4,4-difluoropyrrolidin-1-yl)-2-oxoethyl)-3-(2-phenylacetamido)isonicotinamide]",< 1000 nM,> 50%,> 50%,< 1000 nM,< 1000 nM,> 10000 nM,> 10000 nM,> 10000 nM,> 10000 nM,> 10000 nM,1000 to 10000 nM
"CC(Nc1cnccc1C(=O)NCC(=O)N1CC(F)(F)C[C@H]1C#N)c1ccc(F)cc1 (stereo partly drawn) [Compound 4, N-(2-((S)-2-cyano-4,4-difluoropyrrolidin-1-yl)-2-oxoethyl)-3-((1-(4-fluorophenyl)ethyl)amino)isonicotinamide]",< 1000 nM,> 50%,> 50%,< 1000 nM,< 1000 nM,1000 to 10000 nM,1000 to 10000 nM,> 10000 nM,> 10000 nM,> 10000 nM,1000 to 10000 nM
"N#C[C@@H]1CC(F)(F)CN1C(=O)CNC(=O)c1ccnc(N2CCN(C(c3ccc(F)cc3)c3ccc(F)cc3)CC2)c1 [Compound 6, (S)-2-(4-(bis(4-fluorophenyl)methyl)piperazin-1-yl)-N-(2-(2-cyano-4,4-difluoropyrrolidin-1-yl)-2-oxoethyl)isonicotinamide]",< 1000 nM,> 50%,> 50%,< 1000 nM,< 1000 nM,–,–,–,–,1000 to 10000 nM,1000 to 10000 nM
"N#C[C@@H]1CC(F)(F)CN1C(=O)CNC(=O)c1ccncc1CCc1ccc(Cl)cc1 [Compound 10, (S)-3-(4-chlorophenethyl)-N-(2-(2-cyano-4,4-difluoropyrrolidin-1-yl)-2-oxoethyl)isonicotinamide]",< 1000 nM,> 50%,> 50%,< 1000 nM,< 1000 nM,1000 to 10000 nM,1000 to 10000 nM,1000 to 10000 nM,1000 to 10000 nM,1000 to 10000 nM,1000 to 10000 nM
C/C(=C\c1cnccc1C(=O)NCC(=O)N1CC(F)(F)C[C@H]1C#N)c1ccc(OC(F)(F)F)cc1 [Compound 19],< 1000 nM,–,> 50%,–,–,–,> 10000 nM,–,> 10000 nM,–,1000 to 10000 nM
C/C(=C\c1cnccc1C(=O)NCC(=O)N1CC(F)(F)C[C@H]1C#N)c1ccc(C(F)(F)F)cc1 [Compound 20],< 1000 nM,–,> 50%,–,–,–,> 10000 nM,–,> 10000 nM,–,1000 to 10000 nM
N#C[C@@H]1CC(F)(F)CN1C(=O)CNC(=O)c1ccncc1/C=C/c1ccc(C(F)(F)F)cc1 [Compound 24],< 1000 nM,–,> 50%,–,–,–,1000 to 10000 nM,–,> 10000 nM,–,1000 to 10000 nM
C/C(=C\c1cnccc1C(=O)NCC(=O)N1CC(F)(F)C[C@H]1C#N)c1ccc(Cl)cc1 [Compound 26],< 1000 nM,–,> 50%,–,–,–,> 10000 nM,–,> 10000 nM,–,< 1000 nM
COc1ccc(/C(C)=C/c2cnccc2C(=O)NCC(=O)N2CC(F)(F)C[C@H]2C#N)cc1 [Compound 29],< 1000 nM,–,> 50%,–,–,–,> 10000 nM,–,> 10000 nM,–,1000 to 10000 nM
N#C[C@@H]1CC(F)(F)CN1C(=O)CNC(=O)c1ccncc1/C=C/c1ccc(OC(F)(F)F)cc1 [Compound 33],< 1000 nM,–,> 50%,–,–,–,> 10000 nM,–,> 10000 nM,–,< 1000 nM
N#C[C@@H]1CC(F)(F)CN1C(=O)CNC(=O)c1ccnc2ccc(-c3ccc(C(F)(F)F)cc3)cc12 [Compound 35],< 1000 nM,–,> 50%,–,–,–,> 10000 nM,–,> 10000 nM,–,< 1000 nM
COc1ccc(C#Cc2cnccc2C(=O)NCC(=O)N2CC(F)(F)C[C@H]2C#N)cc1 [Compound 36],< 1000 nM,–,> 50%,–,–,–,> 10000 nM,–,> 10000 nM,–,> 10000 nM
N#C[C@@H]1CC(F)(F)CN1C(=O)CNC(=O)c1ccncc1C#Cc1ccc(Cl)cc1 [Compound 37],< 1000 nM,–,> 50%,–,–,–,> 10000 nM,–,> 10000 nM,–,> 10000 nM
N#C[C@@H]1CC(F)(F)CN1C(=O)CNC(=O)c1ccnc2ccc(-c3ccc(C(F)(F)F)nc3)cc12 [Compound 38],< 1000 nM,–,> 50%,–,–,–,> 10000 nM,–,> 10000 nM,–,< 1000 nM
C/C(=C\c1ccc2nccc(C(=O)NCC(=O)N3CC(F)(F)C[C@H]3C#N)c2c1)c1ccc(Cl)cc1 [Compound 39],< 1000 nM,–,> 50%,–,–,–,> 10000 nM,–,> 10000 nM,–,< 1000 nM
N#C[C@@H]1CC(F)(F)CN1C(=O)CNC(=O)c1ccnc2ccc(/C=C/c3ccc4cc(Cl)ccc4c3)cc12 [Compound 42],< 1000 nM,–,> 50%,–,–,–,> 10000 nM,–,> 10000 nM,–,< 1000 nM
COc1ccc(/C=C/c2ccc3nccc(C(=O)NCC(=O)N4CC(F)(F)C[C@H]4C#N)c3c2)cn1 [Compound 43],< 1000 nM,–,> 50%,–,–,–,> 10000 nM,–,> 10000 nM,–,< 1000 nM
N#C[C@@H]1CC(F)(F)CN1C(=O)CNC(=O)c1ccnc2ccc(/C=C/c3ccc(OC(F)(F)F)cc3)cc12 [Compound 48],< 1000 nM,–,> 50%,–,–,–,> 10000 nM,–,> 10000 nM,–,< 1000 nM
Cc1ccc(/C=C/c2ccc3nccc(C(=O)NCC(=O)N4CC(F)(F)C[C@H]4C#N)c3c2)nc1 [Compound 49],< 1000 nM,–,> 50%,–,–,–,–,–,–,–,< 1000 nM
CC(C)(C)c1ccc(/C=C/c2ccc3nccc(C(=O)NCC(=O)N4CC(F)(F)C[C@H]4C#N)c3c2)cc1 [Compound 50],< 1000 nM,–,> 50%,–,–,–,–,–,–,–,1000 to 10000 nM
N#C[C@@H]1CC(F)(F)CN1C(=O)CNC(=O)c1ccnc2ccc(/C=C/c3ccc(C(F)(F)F)cc3)cc12 [Compound 51],< 1000 nM,–,> 50%,–,–,–,–,–,–,–,< 1000 nM
CN1CCN(c2ccc(-c3ccc4nccc(C(=O)NCC(=O)N5CC(F)(F)C[C@H]5C#N)c4c3)cn2)CC1 [Compound 52],< 1000 nM,–,> 50%,–,–,–,–,–,–,–,1000 to 10000 nM
C[C@H](Nc1cnccc1C(=O)NCC(=O)N1CC(F)(F)C[C@H]1C#N)c1ccc(F)cc1 [Compound 190],< 1000 nM,–,> 50%,–,–,–,> 10000 nM,–,–,–,–
C[C@@H](Nc1cnccc1C(=O)NCC(=O)N1CC(F)(F)C[C@H]1C#N)c1ccc(F)cc1 [Compound 191],< 1000 nM,–,> 50%,–,–,–,> 10000 nM,–,1000 to 10000 nM,–,–
CC(C)(O)c1ccc(-c2ccc3nccc(C(=O)NCC(=O)N4CC(F)(F)C[C@H]4C#N)c3c2)cc1 [Compound 195],< 1000 nM,–,> 50%,–,–,–,> 10000 nM,–,> 10000 nM,–,–
